Measured values taken from patent US11827628B2, “Compositions and methods for inhibition of the JAK pathway” (Rigel Pharmaceuticals, Inc., priority 2005, dated 2023).
Counter-ions that a name gives are not always drawn. Like-named read-outs stand apart in the source and are kept apart here.

What was measured:
[1] = tested on: IL-4 stimulated expression of CD23 in human Ramos B cells (JAK-1 and JAK-3); test: Assay for Ramos B-Cell Line Stimulated with IL-4 (CD23 upregulation, FACS); assay type: cell-based; details: read-out: IC50, Example 41
Procedure, shortened: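 Steps: Ramos B cells are suspended in RPMI with 5% serum, exposed to compound for 1 h at 37 °C, stimulated with IL-4 (final 50 units/mL) for 20-24 h, stained for CD23 and analysed by flow cytometry. IC50 is calculated.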

[2] = tested on: up-regulation of ICAM-1 (CD54) by IFNγ in U937 human monocytic cells; test: U937 IFNγ ICAM1 FACS Assay; assay type: cell-based; details: U937 cells stimulated with IFNγ, ICAM-1 expression by FACS, read-out: IC50, Example 44
Procedure, shortened: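 U937 cells in 10% FCS RPMI were preincubated 30 min at 37 °C with an 8-point, 3-fold compound dilution series in duplicate, then stimulated with IFNγ for 18–24 h. Surface ICAM-1 was stained with APC anti-ICAM-1 and read by flow cytometry as geometric mean on live-gated cells. EC50 was derived.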

[3] = Ramos B-cell line stimulated with IL-4, CD23 expression by FACS
[4] = Ramos B cells stimulated with IL-4, CD23 expression by FACS

Compound | IC50 [1, 3] [nM] | IC50 [2] [nM] | IC50 ([1]; Ramos B-cell line stimulated with IL-4, CD23 expression by FACS, dihydrochloride) [nM] | IC50 ([2]; dihydrochloride) [nM] | IC50 [1, 4] [nM]
CN1CCN(c2ccc(Nc3ncc(F)c(Nc4ccc(OCC#N)c(F)c4)n3)cc2S(N)(=O)=O)CC1 [Compound I-10, N2-[3-Aminosulfonyl-4-(4-methylpiperazine-1-yl)phenyl]-5-fluoro-N4-(4-cyanomethyleneoxy-3-fluorophenyl)-2,4-pyrimidinediamine] | 25.5 | 261 | – | – | –
C[Si](C)(C)C#Cc1cnc(Nc2cccc(S(N)(=O)=O)c2)nc1Nc1ccc(OCC#N)cc1 [Compound I-15, N2-(3-Aminosulfonylphenyl)-N4-(4-cyanomethyleneoxyphenyl)-5-trimethylsilylacetylene-2,4-pyrimidinediamine] | 309 | 4970 | – | – | –
Cc1cc(Nc2nc(Nc3ccc(S(N)(=O)=O)cc3)ncc2F)ccc1OCC(N)=O [Compound I-113, N4-(4-Aminocarbonylmethoxy-3-methyl)phenyl-N2-(4-aminosulfonyl)phenyl-5-fluoro-2,4-pyrimidinediamine] | 165 | 13500 | – | – | –
CNS(=O)(=O)c1cc(Nc2ncc(F)c(Nc3ccc(Cn4ccnc4)cc3)n2)ccc1C [III-86, 5-Fluoro-N2-[3-(N-methylaminosulfony)-4-methylphenyl]-N4-[4-(1-imidazolylmethyl)phenyl]-2,4-pyrimidinediamine dihydrochloride] | – | – | 97.6 | 6450 | –
CC(Oc1ccc(Nc2nc(Nc3cccc(S(N)(=O)=O)c3)ncc2F)cc1)C(N)=O (racemic) [Compound I-117, Racemic N4-[4-(1-Aminocarbonyl)ethoxy]phenyl-N2-(3-aminosulfonyl)phenyl-5-fluoro-2,4-pyrimidinediamine] | 353 | 14600 | – | – | –
NS(=O)(=O)c1cccc(Nc2ncc(F)c(Nc3ccc(OCc4cccnc4)cc3)n2)c1 [Compound I-188, N2-(3-Aminosulfonylphenyl)-5-fluoro-N4-[4-(3-pyridinyl)methyleneoxyphenyl]-2,4-pyrimidinediamine] | 42.7 | 500 | – | – | –
C#CCOc1ccc(Nc2nc(Nc3ccc(C)c(S(=O)(=O)NC4CCN(C)CC4)c3)ncc2F)cc1 [VI-69, 5-Fluoro-N2-{[4-methyl-3-((1-methylpiperidin-4-yl)aminosulfonyl)]phenyl} N4-[4-(prop-2-ynyloxy)phenyl]-2,4-pyrimidinediamine] | – | – | – | – | 194
Cc1ccc(Nc2nc(Nc3ccc(S(N)(=O)=O)cc3)ncc2F)cc1OCC(=O)N1CCOCC1 [Compound I-209, N2-(4-Aminosulfonylphenyl)-5-fluoro-N4-[4-methyl-3-(2-morpholinocarbonylmethyleneoxy)phenyl]-2,4-pyrimidinediamine] | 580 | – | – | – | –
N2-[3-Aminosulfonyl-4-(4-methylpiperazine-1-yl)phenyl]-N4-(3-cyanomethylene-1H-indol-7-yl)-5-fluoro-2,4-pyrimidinediamine [IX-18] | – | 6660 | – | – | 168
Cc1ccc(Nc2ncc(Br)c(Nc3ccc(OCC#N)cc3)n2)cc1S(N)(=O)=O [Compound I-14, N2-(3-Aminosulfonyl-4-methylphenyl)-5-bromo-N4-(4-cyanomethyleneoxyphenyl)-2,4-pyrimidinediamine] | 13 | 41.8 | – | – | –
CCN(CC)CCNS(=O)(=O)c1ccc(Nc2ncc(F)c(Nc3ccc(OCc4cccnc4)cc3)n2)cc1 [Compound I-191, N2-[4-(2-N,N-Diethylaminoethyl)aminosulfonylphenyl)-5-fluoro-N4-[4-(3-pyridinyl)methyleneoxyphenyl]-2,4-pyrimidinediamine] | 135 | 796 | – | – | –
Cc1cc(COc2ccc(Nc3nc(Nc4ccc(C)c(S(N)(=O)=O)c4)ncc3F)cc2)n(C)n1 [Compound I-198, N2-(3-Aminosulfonyl-4-methylphenyl)-N4-[4-(1,3-dimethyl-(1H)-pyrazol-5-yl)methyleneoxyphenyl]-5-fluoro-2,4-pyrimidinediamine] | 102 | 805 | – | – | –
Cc1ccc(Nc2ncc(F)c(Nc3ccc(OCc4ccccn4)cc3)n2)cc1S(N)(=O)=O [Compound I-160, N2-(3-Aminosulfonyl-4-methylphenyl)-5-fluoro-N4-[4-(2-pyridinyl)methyleneoxyphenyl]-2,4-pyrimidinediamine] | 130 | 923 | – | – | –
CC(C)c1ccc(Nc2ncc(F)c(Nc3ccc(OCC#N)cc3)n2)cc1S(N)(=O)=O [Compound I-8, N2-(3-Aminosulfonyl-4-iso-propylphenyl)-N4-(4-cyanomethyleneoxyphenyl)-5-fluoro-2,4-pyrimidinediamine] | 58.7 | 410 | – | – | –
CCN(CC)CCNS(=O)(=O)c1ccc(Nc2ncc(F)c(Nc3cccc(OCc4cccnc4)c3)n2)cc1 [Compound I-186, N2-[4-(2-N,N-Diethylaminoethyl)aminosulfonylphenyl)-5-fluoro-N4-[3-(3-pyridinyl)methyleneoxyphenyl]-2,4-pyrimidinediamine] | 188 | 3530 | – | – | –
Cc1cc(COc2ccc(Nc3nc(Nc4ccc(C)c(S(N)(=O)=O)c4)ncc3F)cc2)[nH]n1 [Compound I-197, N2-(3-Aminosulfonyl-4-methylphenyl)-5-fluoro-N4-[4-(3-methyl-(1H)-pyrazol-5-yl)methyleneoxyphenyl]-2,4-pyrimidinediamine] | 135 | 1280 | – | – | –
N2-[3-Aminosulfonyl-4-(4-methylpiperazine-1-yl)phenyl]-N4-(3-cyanomethylene-1H-indol-6-yl)-5-fluoro-2,4-pyrimidinediamine [IX-17] | – | 1980 | – | – | 108
NS(=O)(=O)c1cccc(Nc2ncc(F)c(Nc3ccc(OCC(F)(F)F)cc3)n2)c1 [VI-47, N2-(3-Aminosulfonylphenyl)-5-fluoro-N4-(4-trifluoromethylmethyleneoxyphenyl)-2,4-pyrimidinediamine] | – | 596 | – | – | 82.8
Cc1ccc(Nc2ncc(F)c(Nc3ccc(OCc4cccnc4)cc3)n2)cc1S(N)(=O)=O [Compound I-189, N2-(3-Aminosulfonyl-4-methylphenyl)-5-fluoro-N4-[4-(3-pyridinyl)methyleneoxyphenyl]-2,4-pyrimidinediamine] | 137 | 508 | – | – | –
Cc1ccc(Nc2ncc(F)c(Nc3cccc(OCc4cccnc4)c3)n2)cc1S(N)(=O)=O [Compound I-183, N2-(3-Aminosulfonyl-4-methylphenyl)-5-fluoro-N4-[3-(3-pyridinyl)methyleneoxyphenyl]-2,4-pyrimidinediamine] | 249 | 2280 | – | – | –
N#CCn1ccc2cc(Nc3nc(Nc4ccc(S(N)(=O)=O)cc4)ncc3F)ccc21 [IX-6, N2-(4-Aminosulfonylphenyl)-N4-(1-cyanomethyleneindol-5-yl)-5-fluoro-2,4-pyrimidinediamine] | – | – | – | – | 84
Cc1ccc(Nc2ncc(F)c(Nc3ccc(OCc4ccncc4)cc3)n2)cc1S(N)(=O)=O [Compound I-194, N2-(3-Aminosulfonyl-4-methylphenyl)-5-fluoro-N4-[4-(4-pyridinyl)methyleneoxyphenyl]-2,4-pyrimidinediamine] | 28.6 | – | – | – | –

Continued, values first:

IC50 [1, 3] [nM] | IC50 [2] [nM] | IC50 ([1]; Ramos B-cell line stimulated with IL-4, CD23 expression by FACS, dihydrochloride) [nM] | IC50 ([2]; dihydrochloride) [nM] | IC50 [1, 4] [nM] | Compound
– | 1260 | – | – | 87.5 | CNC(=O)N1CCCc2cc(Nc3nc(Nc4ccc(C)c(S(N)(=O)=O)c4)ncc3F)ccc21 [VII-19, N2-(3-Aminosulfonyl-4-methylphenyl)-5-fluoro-N4-[1-(methylaminocarbonyl)-1,2,3,4-tetrahydroquin-6-yl]-2,4-pyrimidinediamine]
– | 24400 | – | – | 275 | Cc1ccc(Nc2ncc(F)c(Nc3ccc4c(c3)CNCC4)n2)cc1S(N)(=O)=O [VII-16, N2-(3-Aminosulfonyl-4-methylphenyl)-5-fluoro-N4-(1,2,3,4-tetrahydroisoquin-7-yl)-2,4-pyrimidinediamine]
– | 568 | – | – | 66.6 | CCS(=O)(=O)N1CCc2cc(Nc3nc(Nc4ccc(C)c(S(N)(=O)=O)c4)ncc3F)ccc2C1 [VII-15, N2-(3-aminosulfonyl-4-methyl)phenyl-N4-[(N-ethylsulfonyl)-1,2,3,4-tetrahydroisoquinolin-6-yl]-5-fluoro-2,4-pyrimidinediamine]
– | 5060 | – | – | 350 | CN1C(=O)CSc2ccc(Nc3nc(Nc4cccc(S(=O)(=O)N5CCCCC5)c4)ncc3F)cc21 [VII-50, 5-Fluoro-N4-(4-methyl-3-oxo-benz[1,4]thiazin-6-yl)-N2-(3-pipendinosulfonylphenyl)-2,4-pyrimidinediamine]
– | 1670 | – | – | 184 | N2-(3-Aminosulphonylphenyl)-5-fluoro-N4-[4-(3-pyridinylmethyl)benzo[1,4]oxazin-7-yl]-2,4-pyrimidinediamine [VII-55]
– | 849 | – | – | 111 | COCCCn1ncc2cc(Nc3nc(Nc4cccc(S(N)(=O)=O)c4)ncc3F)ccc21 [VII-22, N2-(3-Aminosulfonylphenyl)-5-fluoro-N4-[1-(3-methoxypropyl)indazolin-5-yl]-2,4-pyrimidinediamine]
– | 1290 | – | – | 140 | CCS(=O)(=O)N1CCc2cc(Nc3nc(Nc4ccc(S(N)(=O)=O)cc4)ncc3F)ccc2C1 [VII-13, N2-(4-aminosulfonyl)phenyl-N4-[(N-ethylsulfonyl)-1,2,3,4-tetrahydroisoquinolin-6-yl]-5-fluoro-2,4-pyrimidinediamine]
– | – | – | – | 36.7 | NC1CCOc2ccc(Nc3nc(Nc4cccc(S(N)(=O)=O)c4)ncc3F)cc21 (stereo not shown) [VII-28, N2-(3-Aminosulfonylphenyl)-N4-(chroman-4-amine-6-yl)-5-fluoro-2,4-pyrimidinediamine]
